# Experimental data taken from patent US20230382916A1, “HETEROARYL HETEROCYCLIC COMPOUNDS AND USES THEREOF” (HUTCHISON MEDIPHARMA LIMITED, priority 2020, published 2023).
# Assays:
# [1] = test system: idiopathic thrombocytopenic purpura induced by anti-mouse CD41 antibodies; assay: Idiopathic thrombocytopenic purpura induced by anti-CD41 antibody in mice, level of platelets; assay type: in vivo
# Description: Male C57BL/6 mice were purchased from Shanghai Lingchang Biotechnology Co., Ltd. (certificate number 20180003011079, initial body weight of 18-20 grams), and were randomly grouped according to Table 4, with 8 mice in each group. […] When modeling, each mouse was intraperitoneally injected with 200 μL of PBS solution containing […] of anti-mouse CD41 antibodies (BD, Cat #: 553487, Lot #: 7026765).
# Eight hours and twenty-four hours after modeling, the whole blood was collected and placed in a centrifuge tube coated with 10% citrate-phosphate-dextrose-adenine (CPDA), and the level of platelets (PLT) in the whole blood was measured by an XT-2000i (SYSMEX) automatic blood analyzer (Shanghai Laboratory Animal Research Centre Sino-British SIPPR/B & K Lab Animal Ltd).
# The average level of platelets in peripheral blood was analyzed with Graphpad statistical software by one way ANOVA followed by Fisher LSD multiple comparison test, and the p value was calculated, wherein *p<0.05 indicated a statistically significant difference compared with the vehicle control group, **p<0.01 indicated a statistically extremely significant difference compared with the vehicle control group, and ##p<0.01 indicated a statistically extremely significant difference compared with the normal group.
# RR %=(PLTtreatment−PLTmodel)/(PLTnaive−PLTmodel)×100%.
# [2] = test system: rat arthritis model induced by type II collagen; assay: Rat arthritis model induced by type II collagen (CIA), paw volume; assay type: in vivo; details: for inhibition ratio of area under the curve (IRAUC) of paw swelling: Day 13 to Day 19
# Description: An appropriate amount of bovine type II collagen (CII, Chondrex (Redmond, WA, USA), Cat #20021) was weighed and dissolved in 0.1 mole of acetic acid (SPGC Sinopharm Chemical Reagent Co., Ltd (Shanghai, P.R. China), Cat #: 10000218.), which was formulated into a solution with a concentration of 6 mg/mL, stirred at 4° C. overnight, and added with an equal volume of Freund's incomplete adjuvant (Sigma-Aldrich. (St. Louis, MO, USA), Cat #: SLBW0366.), fully emulsified to prepare an emulsion with a CII concentration of 3 mg/mL.
# Female Lewis rats were purchased from Beijing Vital River Laboratory Animal Technology Co., Ltd. (certificate number 20200928Aazz0619000579, initial body weight of 110-130 grams), and 6 rats were randomly selected as a normal group; and all of the remaining rats were immunized. In the first immunization on day 0, the rats except those in the normal group were anesthetized with isoflurane (Hebei Yipin Pharmaceutical Co., Ltd., Lot: C002170601.), and then disinfected with 75% alcohol, and 0.2 mL of emulsion was injected intradermally at the base of the tail thereof. A second challenge was carried out on day 7, and 0.2 mL of emulsion was intradermally injected using the same method. Once the animals developed symptoms on day 10, the incidence conditions thereof were closely monitored.
# After grouping, the normal group was not administered, and the rats in the other groups were administered with the control vehicle, 0.25 mg/kg and 4 mg/kg of the reference GDC-0853, and each dose of compound 1 orally once a day until the end of the experiment.
# The paw volume was measured on day 10 after immunization, and the left and right hind paw volumes (V) were measured every day after the paw volume increase was detected.
# The arthrosis paw volumes of the left and right hind limbs of each animal were measured, and the average paw volume (APV) was calculated according to the following formula:
# Average paw volume APV=(Vleft+Vright)/2
# The average arthrosis paw volume of each animal before administration was used as the baseline (or considered […] of inflammation). The averaged paw swelling (APS) of each animal is calculated according to the following formula, wherein, APVd1 is the average paw volume of the animal administered on day 1, and APVdt is the average paw volume of the animal administered on day t:
# The averaged paw swelling APSdt=(APVdt−APVd1)
# The area under the curve (AUC) of the average paw volume swelling is the area under the curve of the arthrosis score swelling calculated by the trapezoid method, and the calculation formula is:
# AUCAPS=½×(APSd1+APSd2)×(d2−d1)+½×(APSd2+APSd3)×(d3−d2)+ . . . +½×(APSdn+APSd(n-1))×(dn−dn-1).
# Inhibition ratio IRAUC%=(Mean AUCAPS in the model group−AUCAPS in the drug-treated group)/(Mean AUCAPS in the model group−Mean AUCAPS in the normal group)×100%.
structure (smiles),measurement,setting,value
"C[C@H]1CN(C2COC2)C[C@H](C)N1c1ccc(Nc2cc(-c3ccnc(-n4ccn5c6c(cc5c4=O)CC(C)(C)C6)c3CO)cn(C)c2=O)nc1 [Compound 1, 2-(5-((5-((2S,6S)-2,6-dimethyl-4-(oxetan-3-yl)piperazin-1-yl)pyridin-2-yl)amino)-3′-(hydroxymethyl)-1-methyl-6-oxo-1,6-dihydro-[3,4′-bipyridin]-2′-yl)-7,7-dimethyl-7,8-dihydro-2H-cyclopenta[4,5]pyrrolo[1,2-a]pyrazin-1(6H)-one]",recovery rate of platelets,"[1]; 0.004 mg/kg oral single dose, 8 hours after modeling",25%
same,recovery rate of platelets,"[1]; 0.004 mg/kg oral single dose, 24 hours after modeling",5%
same,recovery rate of platelets,"[1]; 0.04 mg/kg oral single dose, 8 hours after modeling",37%
same,recovery rate of platelets,"[1]; 0.04 mg/kg oral single dose, 24 hours after modeling",21%
same,recovery rate of platelets,"[1]; 0.4 mg/kg oral single dose, 8 hours after modeling",44%
same,recovery rate of platelets,"[1]; 0.4 mg/kg oral single dose, 24 hours after modeling",29%
same,recovery rate of platelets,"[1]; 4 mg/kg oral single dose, 8 hours after modeling",51%
same,recovery rate of platelets,"[1]; 4 mg/kg oral single dose, 24 hours after modeling",29%
same,minimum effective dose,"[1]; single oral dose, platelets 8 hours after modeling",0.04 mg/kg
same,inhibition ratio of area under the curve (IRAUC) of paw swelling,[2]; 0.06 mg/kg oral QD,76.2%
same,effect on paw volume compared with vehicle control group,[2]; 0.25 mg/kg oral QD,significantly increase the continuous improvement of paw volume swelling
same,inhibition ratio of area under the curve (IRAUC) of paw swelling,[2]; 0.25 mg/kg oral QD,83.1%
same,effect on paw volume compared with vehicle control group,[2]; 4 mg/kg oral QD,significantly increase the continuous improvement of paw volume swelling
same,inhibition ratio of area under the curve (IRAUC) of paw swelling,[2]; 4 mg/kg oral QD,200.2%
same,minimum effective dose,"[2]; oral QD, paw swelling",0.06 mg/kg/day
